{"source": "patent US20240260578A1", "about": "“HERBICIDAL COMPOSITIONS AND RELATED METHODS” (BELCHIM Crop Protection USA LLC, priority 2023, published 2024)", "format_in_all_cases": "in vivo", "key": {"[1]": {"system": "Yellow nutsedge (Cypersus esculentus)", "assay": "Field trial, post-emergent control of established Yellow nutsedge (Example 1)", "conditions": "10 DAT, pyridate 24 fluid ounces/acre, sulfentrazone 12 fluid ounces/acre, visual estimate vs untreated plot, non-replicated", "procedure": "Field trials were conducted to evaluate the efficacy of pyridate herbicide alone and in combination with sulfentrazone when applied in a post-emergent manner to established Yellow nutsedge (Cypersus esculentus). The field trial was conducted alongside of a gravel path on the Corbett Farm located Batten Pond Road in Selma, NC 27576. Yellow nutsedge was established and ranged from 8-12 inches in height. The distribution of weeds in the plots was uniform throughout this location.\nIndividual treatments were applied on a 1×4 meter squared plot area. The experimental design was a non-replicated linear strip plot. The applications were made with a RYOBI electric 4 gallon backpack sprayer equipped with 11004 nozzles with a spray pressure of 35 psi calibrated to deliver about 40 gallons per acre spray volume, respectively. All applications were applied on the same day. The wind speed was less than 10 mph at time of application.\nPyridate used in this trial was a five pound active ingredient per gallon emulsifiable concentrate (EC) marketed by Belchim Crop Protection as Tough® 5EC Herbicide. The sulfentrazone used in this trial was Sulfentrazone 4L Select marketed by Prime Source, a division of Albaugh, LLC. […]"}, "[2]": {"system": "green Kyllinga (Kyllinga brevifolia)", "assay": "Post-emergent control of green Kyllinga, Hampstead, North Carolina (Example 3)", "conditions": "35 DAT, rates per Table 3", "procedure": "(§1) A study was conducted to evaluate and compare the post-emergent control of green Kyllinga (Kyllinga brevifolia) versus the industry standards of Sulfentrazone Select or Halosulfuron 75 WDG. The study was conducted in Hampstead, North Carolina at Old Pointe Country Club. A randomized block design with four replications was utilized. Treatments were applied with a CO2 pressurized spray system. Irrigations were suspended for at least 24 hours after application."}, "Yellow Nutsedge": {"system": "Yellow Nutsedge", "assay": "Post-emergent control of Yellow Nutsedge, Hampstead, North Carolina (Example 4)", "conditions": "35 DAT, rates per Table 5", "procedure": "as §1, with “Yellow Nutsedge” for “green Kyllinga (Kyllinga brevifolia)”, “application. [table]” for “application.”"}}, "note": "“And” between values parts separate entries of the source, which are not always exact repeats. Equal entries are not always repeated.", "data": [{"smiles": "CCCCCCCCSC(=O)Oc1cc(Cl)nnc1-c1ccccc1", "note": "[Pyridate, pyridate]", "values": [{"measurement": "Percentage (%) Control 10 Days after Treatment (DAT)", "setting": "[1]", "value": "approximately 20% and 20%"}]}, {"smiles": "Cc1nn(-c2cc(NS(C)(=O)=O)c(Cl)cc2Cl)c(=O)n1C(F)F", "note": "[Sulfentrazone, sulfentrazone]", "values": [{"measurement": "Percentage (%) Control 10 Days after Treatment (DAT)", "setting": "[1]", "value": "approximately 70% and 70%"}, {"measurement": "Percentage Control", "setting": "[2]", "value": 43.3, "unit": "%"}, {"measurement": "Percentage Control", "setting": "Yellow Nutsedge", "value": 60, "unit": "%"}]}]}
